SMILES strings stand for the structures. Counter-ions that a name gives are not always drawn.

The assay has as its target T1, α1D adrenoceptor (aorta) (Rattus norvegicus, UniProt P23944).
T1 construct: Isolated tissues were mounted in organ bath containing Krebs Henseleit buffer; from tissue; host or cells: isolated rat aorta
T1 sequence (P23944 1-561): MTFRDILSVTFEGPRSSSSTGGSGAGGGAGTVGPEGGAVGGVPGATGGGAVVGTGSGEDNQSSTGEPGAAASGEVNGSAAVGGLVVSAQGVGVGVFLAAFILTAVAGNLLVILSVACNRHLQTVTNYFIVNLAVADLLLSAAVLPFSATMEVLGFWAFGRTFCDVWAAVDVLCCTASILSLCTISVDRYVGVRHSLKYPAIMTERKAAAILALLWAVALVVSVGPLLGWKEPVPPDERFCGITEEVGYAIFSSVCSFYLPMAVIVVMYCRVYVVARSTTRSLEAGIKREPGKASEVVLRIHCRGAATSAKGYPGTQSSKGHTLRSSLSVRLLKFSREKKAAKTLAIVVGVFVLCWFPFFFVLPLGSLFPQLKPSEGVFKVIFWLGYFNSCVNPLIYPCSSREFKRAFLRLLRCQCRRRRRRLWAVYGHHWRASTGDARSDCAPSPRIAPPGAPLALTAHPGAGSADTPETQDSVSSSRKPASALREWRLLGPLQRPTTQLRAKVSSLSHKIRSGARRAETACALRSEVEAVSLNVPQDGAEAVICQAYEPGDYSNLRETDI
Briefly: In vitro functional assay, isolated aorta, norepinephrine contraction. The format is cell-based. The note with it: read-out: α Adrenoceptor Subtype (pKB) α1D (converted). Put shortly:
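Rat aorta, spleen and prostate strips from urethane-anaesthetised male Wistar rats in Krebs-Henseleit at 37 °C (95% O2/5% CO2), 2 g or 1 g resting tension, 2 h equilibration. Norepinephrine (aorta) or phenylephrine (spleen, prostate) contraction curves run without and with compound at […]; antagonist affinity given as pKB.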

As to `CC(C)Oc1ccccc1N1CCN(CCCN2C(=O)C3CC(O)C(O)CC3C2=O)CC1` (stereo not shown) [Compound No. 23, 2-[3-{4-(2-Isopropoxyphenyl)piperazin-1-yl}propyl]-5,6-dihydroxy-3a,4,5,6,7,7a, hexahydro-1H-isoindole-1,3(2H)-dione-hydrochloride], the Kb was 8.32 nM.

The values above are taken from patent US20050228180A1, “Alpha, omega-dicarboximide derivatives as useful uro-selective a1a adrenoceptor blockers” (priority 2002, published 2005).
